Key:
CDK2/CycE = biological target: T1, CDK2/CycE (Homo sapiens, UniProt P24941); experiment: CDK2/CycE kinase assay; format: biochemical; details: recombinant CDK2/CycE-GST, histone IIIS substrate, 0.5 μm ATP, 15 minutes at 22° C.
T1 construct: GST; purchased Dr. Dieter Marmé, Klinik für Tumorbiologie, Freiburg (obtained from an outside laboratory); host or cells: baculovirus-infected Sf9 insect cells
Protocol: Recombinant CDK2- and CycE-GST-fusion proteins, purified from baculovirus-infected insect cells (Sf9), were obtained by Dr. Dieter Marmé, Klinik für Tumorbiologie [Clinic for Tumor Biology], Freiburg. Histone IIIS, which was used as a kinase substrate, was purchased by the Sigma Company.
CDK2/CycE (50 ng/measuring point) was incubated for 15 minutes at 22° C. in the presence of various concentrations of test substances (0 μm, as well as within the range of 0.01-100 μm) in assay buffer [50 mmol of tris/HCl pH 8.0, 10 mmol of MgCl2, 0.1 mmol of Na ortho-vanadate, 1.0 mmol of dithiothreitol, 0.5 μm of adenosine triphosphate (ATP), 10 μg/measuring point of histone IIIS, 0.2 μCi/measuring point of ^33P-gamma ATP, 0.05% NP40, 12.5% dimethyl sulfoxide]. The reaction was stopped by adding EDTA solution (250 mmol, pH 8.0, 14 μl/measuring point).
From each reaction batch, 10 μl was applied to P30 filter strips (Wallac Company), and non-incorporated ^33P-ATP was removed by subjecting the filter strips to three washing cycles for 10 minutes each in 0.5% phosphoric acid. After the filter strips were dried for one hour at 70° C., the filter strips were covered with scintillator strips (MeltiLex™ A, Wallac Company) and baked for one hour at 90° C. The amount of incorporated ^33P (substrate phosphorylation) was determined by scintillation measurement in a gamma-radiation measuring device (Wallac).

MCF-7 cells = experiment: Proliferation assay (crystal violet); format: cell-based; details: MCF7, 96 h, MCF-7 human tumor cells, 4 days incubation
Protocol: Cultivated human tumor cells (as indicated) were flattened out at a density of 5000 cells/measuring point in a 96-well multititer plate in 200 μl of the corresponding growth medium. After 24 hours, the cells of one plate (zero-point plate) were colored with crystal violet (see below), while the medium of the other plates was replaced by fresh culture medium (200 μl), to which the test substances were added in various concentrations (0 μm, as well as in the range of 0.01-30 μm; the final concentration of the solvent dimethyl sulfoxide was 0.5%). The cells were incubated for 4 days-in the presence of test substances. The cell proliferation was determined by coloring the cells with crystal violet: the cells were fixed by adding 20 μl/measuring point of a 11% glutaric aldehyde solution for 15 minutes at room temperature. After subjecting the fixed cells to three washing cycles with water, the plates were dried at room temperature. The cells were colored by adding 100 μL/measuring point of a 0.1% crystal violet solution (pH was set at 3 by adding acetic acid). […] The extinction was determined by photometry at a wavelength of 595 nm. The change of cell growth, in percent, was calculated by standardization of the measured values to the extinction values of the zero-point plate (=0%) and the extinction of the untreated (0 μm) cells (=100%).

IC50 (CDK2/CycE) [nM]	melting point [°C]	Structure (SMILES)	IC50 (MCF-7 cells) [nM]
> 5000	> 300	COc1ccc(-c2ccc3c(c2)/C(=C2/Nc4ccccc4C2=O)C(=O)N3)cc1 [Example 1.0, 5-(4-Methoxyphenyl)-indirubin]	
1000		O=C1Nc2ccc(-c3ccccc3)cc2C1=C1Nc2ccccc2C1=O [Example 1.1]	
600		O=C1Nc2ccc(-c3cc(C(F)(F)F)cc(C(F)(F)F)c3)cc2C1=C1Nc2ccccc2C1=O [Example 1.3]	
30		O=C1Nc2ccc(-c3ccc(Cl)cc3)cc2C1=C1Nc2ccccc2C1=O [Example 1.4]	500
300		CC(C)(C)c1ccc(-c2ccc3c(c2)C(=C2Nc4ccccc4C2=O)C(=O)N3)cc1 [Example 1.5]	

Structure (SMILES)	IC50 (CDK2/CycE) [nM]	melting point [°C]	IC50 (MCF-7 cells) [nM]
CC(C)(C)[Si](C)(C)Oc1cccc(-c2ccc3c(c2)C(=C2Nc4ccccc4C2=O)C(=O)N3)c1 [Example 1.2]	150		4000

Reference: patent publication US20020132792A1, “Aryl-substituted indirubin derivatives, their production and use” (Schering AG, priority 2000, published 2002)
